Drawing on patent publication US20260015592A1, “NEDDYLATION-ACTIVATING ENZYME INHIBITORS AS VIRAL SENSITIZERS AND USES THEREOF” (priority 2022, published 2026), this text covers survival for one compound.

The test deals with melanoma B16 tumors overexpressing OVA antigen (B16-OVA). The following applies: mouse, in vivo.

`NS(=O)(=O)OC[C@@H]1C[C@H](n2ccc3c(N[C@H]4CCc5ccccc54)ncnc32)C[C@@H]1O` [pevonedistat, ((1S,2S,4S)-4-(4-(((S)-2,3-dihydro-1H-inden-1-yl)amino)-7H-pyrrolo[2,3-d]pyrimidin-7-yl)-2-hydroxycyclopentyl) methyl sulfamate]: the survival result is on record as “significantly prolonged survival”.
